Data taken from PMC9887600, “Screening for Cyclotides in Sri Lankan Medicinal Plants: Discovery, Characterization, and Bioactivity Screening of Cyclotides from Geophila repens” (Journal of Natural Products, 2022).
Like-named read-outs stand apart in the source and are kept apart here. Where a SMILES comes first, the peptide text is derived from it. Bridges are numbered along the chain shown (N, C = ends).

Key:
[1] = test system: Escherichia coli (ATCC 25922); experiment: Microdilution MIC assay, E. coli; format: cell-based; conditions: for antimicrobial activity, MIC, Escherichia coli: lowest concentration inhibiting 100% growth, Tris buffer, triplicate
From the text: (§1) Cyclotides isolated from G. repens were subjected to a microdilution assay on 96-well plates to determine minimum inhibitory concentration (MIC values), according to a method devised to minimize the activity-inhibiting presence of rich growth media.[43] For these experiments, bacterial strains of E. coli, P. aeruginosa, and S. aureus and the fungal strain of C. albicans were used. The MIC was taken as the lowest concentration of a cyclotide where the visible growth of microbes was inhibited, i.e., 100% of cell death.
(§2) The dried cyclotides were subjected to MIC determination[43] against Staphylococcus aureus (ATCC 29213), Escherichia coli (ATCC 25922), Pseudomonas aeruginosa (ATCC 27853), and Candida albicans (ATCC 90028). The cyclotides (stock concentration of 65 μM) were dissolved in Tris buffer for the assay, and a concentration gradient of the cyclotides was screened against a microbial suspension mixed in a 1:1 ratio in each well (50 μL:50 μL). Microorganisms were grown in 3% tryptic soy broth (TSB) at 37 °C overnight, after centrifuging at 2000 rpm for 6–7 min, and bacterial pellets were washed twice and dissolved with Tris buffer. The absorbance was measured at 600 nm, and the solution was diluted to a concentration of 1 × 10^6 bacteria/mL. Dilution series were prepared using a serial dilution method with cyclotides and Tris buffer. In each plate, 50 μL of microbial suspension (approximately 50 000 cells/well) was added and incubated for 5 h. After incubation, 5 μL of 20% TSB was added to each well. Each plate was incubated based on the growth cycle of the microbe for 6, 9, 10, and 12 h at 37 °C. The minimum concentration that inhibited 100% growth was recorded as the MIC value. Triplicate assays were carried out for each sample.

[2] = test system: Pseudomonas aeruginosa (ATCC 27853); experiment: Microdilution MIC assay, P. aeruginosa; format: cell-based; conditions: lowest concentration inhibiting 100% growth; Tris buffer, triplicate
From the text: as §1, §2

[3] = test system: Staphylococcus aureus (ATCC 29213); experiment: Microdilution MIC assay, S. aureus; format: cell-based; conditions: lowest concentration inhibiting 100% growth; Tris buffer, triplicate
From the text: as §1, §2

[4] = test system: Candida albicans (ATCC 90028); experiment: Microdilution MIC assay, C. albicans; format: cell-based; conditions: lowest concentration inhibiting 100% growth; Tris buffer, triplicate
From the text: as §1, §2

[5] = Liposome leakage (carboxyfluorescein release) membrane permeabilization assay; format: biochemical, E. coli; conditions: carboxyfluorescein release at 45 min, Tris buffer pH 7.4, current study
Method: Each marker represents the mean leakage in Tris buffer, pH 7.4, with standard deviations from three experiments done at individual peptide concentrations, i.e., with no cumulative additions.
Liposomes were manufactured and their permeabilization was assayed as described previously.[48] Briefly, by dissolving an E. coli polar lipid extract in chloroform and evaporating the solvent under agitation, with a nitrogen gas flow, and then storing in vacuum, dry films were formed on the walls of a glass flask. Lipid films were resuspended in an aqueous solution of 100 mM 5(6)-carboxyfluorescein in 10 mM Tris (set to pH 7.4 at 37 °C). Suspensions were subjected to repeated extrusion through a 100 nm polycarbonate membrane in order to reduce multilamellar structures and polydispersity. Untrapped carboxyfluorescein was removed by gel filtration. Membrane permeability was measured by monitoring carboxyfluorescein efflux from the liposomes to the external low-concentration environment, resulting in loss of self-quenching and an increased fluorescence signal. […] The EC50 values are calculated from a sigmoidal dose–response curve with a variable slope to the leakage percentage as a function of the peptide concentration (log 10).

[6] = test system: Human Lymphoma Cell Line U-937 GTB; conditions: read-out: cytotoxicity, IC50, lymphoma U937; FMCA, 72 h incubation
Method: The cytotoxicity of the cyclotides was determined using the fluorometric microculture cytotoxicity assay, employing the U-937 a human lymphoma cell line. This assay is based on hydrolysis of the probe, fluorescein diacetate (FDA), by esterase in live cells containing an intact plasma membrane. The cyclotides were tested at a series of concentrations obtained by 2-fold dilutions.
Cytotoxicity activities of the pure cyclotides were evaluated using a fluorometric microculture cytotoxicity assay (FMCA),[57] which is based on the monitoring of fluorescence arising from fluorescein that is produced as a result of fluorescein diacetate (FDA) hydrolysis by cells with intact cell membranes. Human lymphoma cells (U937) suspended in cell-growth medium were dispensed into the microtiter plate containing pure cyclotides. Each well was seeded with 200 μL of cell suspension, containing approximately 20 000 cells, to give a total volume of 200 μL/well. […] After 40 min of incubation at 37 °C the fluorescence was measured at 485 nm excitation and 538 nm emission. The fluorescence in each well is proportional to the number of living cells, and cytotoxicity activity of a fraction is inversely proportional to fluorescence intensity. […] The IC50 values were calculated from a sigmoidal dose–response curve with a variable slope to the percentage viability as a function of the peptide concentration (log 10).

[7] = test system: standard microbial strains (E. coli, P. aeruginosa, S. aureus, C. albicans); experiment: Microdilution MIC assay, whole panel of microorganisms; format: cell-based; conditions: highest tested concentration 32.5 μM
From the text: as §1
as §2, with “In each plate, 50 μL of microbial suspension (approximately 50 000 cells/well) was added and incubated for 5 h. After incubation, 5 μL of 20% TSB was added to each well. Each plate was incubated based on the growth cycle of the microbe for 6, 9, 10, and 12 h at 37 °C. The minimum concentration that inhibited 100% growth was recorded as the MIC value. Triplicate assays were carried out for each sample.” left out

[8] = test system: Escherichia coli (ATCC 25922); parameters: method as in PMID 28669767; conditions: previously reported; cited from earlier work
[9] = test system: Pseudomonas aeruginosa (ATCC 27853); parameters: method as in PMID 28669767; conditions: previously reported; cited from earlier work
[10] = test system: Staphylococcus aureus (ATCC 29213); parameters: method as in PMID 28669767; conditions: previously reported; cited from earlier work
[11] = test system: Candida albicans (ATCC 90028); parameters: method as in PMID 28669767; conditions: previously reported; cited from earlier work
[12] = test system: Human Lymphoma Cell Line U-937 GTB; parameters: method as in PMID 21491023; conditions: previously reported; read-out: cytotoxicity, IC50, lymphoma U937; cited from earlier work
[13] = previously; cited from earlier work
[14] = parameters: method as in PMID 28669767; conditions: previous liposome leakage studies; cited from earlier work

With `CC[C@H](C)[C@@H]1NC(=O)CNC(=O)[C@H](CC(N)=O)NC(=O)[C@H]([C@@H](C)CC)NC(=O)[C@H](Cc2ccc(O)cc2)NC(=O)[C@@H]2CSSC[C@@H]3NC(=O)CNC(=O)[C@H](Cc4ccccc4)NC(=O)[C@H](Cc4ccc(O)cc4)NC(=O)[C@H](C)NC(=O)[C@@H]4CSSC[C@H](NC(=O)[C@H](CO)NC(=O)[C@H](CSSC[C@H](NC(=O)[C@H](C)NC1=O)C(=O)NCC(=O)N[C@@H](CCC(=O)O)C(=O)N[C@@H](CO)C(=O)N4)NC(=O)CNC(=O)[C@@H]1CCCN1C(=O)[C@H]([C@@H](C)CC)NC(=O)[C@H](Cc1c[nH]c4ccccc14)NC3=O)C(=O)N[C@@H](CCCCN)C(=O)N[C@@H](CC(=O)O)C(=O)N[C@@H](CCCCN)C(=O)N[C@@H](C(C)C)C(=O)N2` [gere 2] the “antimicrobial activity, MIC, Escherichia coli” value [1] was over 10 µM, the “antimicrobial activity, MIC, Pseudomonas aeruginosa” value [2] was over 10 µM and the “antimicrobial activity, MIC, Staphylococcus aureus” value [3] was over 10 µM. For the same compound, the “antimicrobial activity, MIC, Candida albicans” value [4] was over 10 µM.
With `CC[C@H](C)[C@@H]1NC(=O)[C@H](Cc2ccccc2)NC(=O)[C@H](C(C)C)NC(=O)[C@@H]2CSSC[C@@H]3NC(=O)[C@H](CO)NC(=O)[C@@H]4CSSC[C@H](NC(=O)[C@@H]5CCCN5C(=O)[C@H](C(C)C)NC(=O)CNC(=O)[C@H](CC(N)=O)NC(=O)[C@H](CC(N)=O)NC(=O)[C@H](Cc5ccc(O)cc5)NC(=O)[C@H](CSSC[C@H](NC(=O)[C@@H]5CCCN5C1=O)C(=O)N[C@@H](Cc1ccccc1)C(=O)N[C@@H]([C@@H](C)O)C(=O)N[C@@H]([C@@H](C)O)C(=O)N[C@@H](C(C)C)C(=O)N[C@@H](C(C)C)C(=O)NCC(=O)N4)NC(=O)[C@H](C(C)C)NC(=O)[C@H](CCCCN)NC(=O)[C@H](CC(=O)O)NC(=O)[C@H](CCCCN)NC3=O)C(=O)NCC(=O)N[C@@H](CCC(=O)O)C(=O)N[C@@H](CO)C(=O)N2` [gere 4] the “antimicrobial activity, MIC, Escherichia coli” value [1] was over 10 µM, the “antimicrobial activity, MIC, Pseudomonas aeruginosa” value [2] was over 10 µM and the “antimicrobial activity, MIC, Staphylococcus aureus” value [3] was over 10 µM. For the same compound, the “antimicrobial activity, MIC, Candida albicans” value [4] was over 10 µM.
For `CC[C@H](C)[C@@H]1NC(=O)[C@H](C)NC(=O)[C@H](CO)NC(=O)[C@H](CO)NC(=O)[C@H]([C@@H](C)CC)NC(=O)[C@@H]2CSSC[C@@H]3NC(=O)[C@H](C(C)C)NC(=O)[C@H](CCCCN)NC(=O)[C@H](CC(N)=O)NC(=O)[C@H](CCCCN)NC(=O)[C@@H]4CSSC[C@H](NC(=O)[C@H](CO)NC(=O)[C@H](CCC(=O)O)NC(=O)CNC(=O)[C@H](CSSC[C@H](NC(=O)CNC1=O)C(=O)N[C@@H](CO)C(=O)N4)NC(=O)[C@@H]1CCCN1C(=O)[C@H]([C@@H](C)CC)NC(=O)CNC(=O)[C@H](CC(N)=O)NC(=O)[C@H](CCCCN)NC(=O)[C@H](Cc1ccc(O)cc1)NC3=O)C(=O)N[C@@H](C(C)C)C(=O)N[C@@H](Cc1c[nH]c3ccccc13)C(=O)N[C@@H]([C@@H](C)CC)C(=O)N1CCC[C@H]1C(=O)N2` [gere 1] (cyclo(AIGCSCKNKVCYKNGIPCGESCVWIPCISS); disulfide 4-18, 6-22, 11-27), the “fold more active than cyO2 against E. coli” value ([1]; gere 1 versus cyO2 MIC) was 5 fold, the “antimicrobial activity, MIC, Escherichia coli” value [1] was 4.0 µM and the “antimicrobial activity, MIC, Pseudomonas aeruginosa” value [2] was 7.9 µM. The “antimicrobial activity, MIC, Staphylococcus aureus” value [3] was over 10 µM, the “antimicrobial activity, MIC, Candida albicans” value [4] was over 10 µM and the EC50 [5] was 70 nM. For the same compound, the IC50 [6] was 2000 nM.
With `CC[C@H](C)[C@@H]1NC(=O)[C@@H]2CCCN2C(=O)[C@H](Cc2c[nH]c3ccccc23)NC(=O)[C@H](CO)NC(=O)[C@@H]2CSSC[C@@H]3NC(=O)[C@H]([C@@H](C)O)NC(=O)[C@H](CCC(=O)O)NC(=O)CNC(=O)[C@@H]4CSSC[C@H](NC(=O)CNC(=O)[C@H](CCC(N)=O)NC(=O)[C@H]([C@@H](C)O)NC(=O)[C@H](Cc5ccc(O)cc5)NC(=O)[C@H](CSSC[C@H](NC1=O)C(=O)N[C@@H](CCCCN)C(=O)N[C@@H](CCCNC(=N)N)C(=O)N[C@@H](CC(N)=O)C(=O)NCC(=O)N[C@@H](CC(C)C)C(=O)N1CCC[C@H]1C(=O)N[C@@H](C(C)C)C(=O)N4)NC(=O)[C@H]([C@@H](C)O)NC(=O)CNC(=O)[C@H](CC(C)C)NC(=O)[C@H]([C@@H](C)O)NC3=O)C(=O)N[C@@H]([C@@H](C)O)C(=O)N2` [kB7, kalata B7] (cyclo(CGETCTLGTCYTQGCTCSWPICKRNGLPV); disulfide 1-15, 5-17, 10-22) the EC50 [5] was 94 nM, the “minimum inhibitory concentration against panel of microorganisms” value [7] was at least 32.5 µM and the IC50 [6] was 10200 nM. The “antimicrobial activity, MIC, Escherichia coli” value [8] was over 10 µM, the “antimicrobial activity, MIC, Pseudomonas aeruginosa” value [9] was 1.25 µM and the “antimicrobial activity, MIC, Staphylococcus aureus” value [10] was over 10 µM. For the same compound, the “antimicrobial activity, MIC, Candida albicans” value [11] was over 10 µM, the IC50 [12] was over 10000 nM and the “concentration at which active in radial diffusion assays” value [13] was 2 mM.
For “cycloviolacin O2 [cyO2, reference compound]”, the “antimicrobial activity, MIC, Escherichia coli” value [8] is listed as over 10 µM, the “antimicrobial activity, MIC, Pseudomonas aeruginosa” value [9] is listed as 10 µM and the “antimicrobial activity, MIC, Staphylococcus aureus” value [10] is listed as over 10 µM. The “antimicrobial activity, MIC, Candida albicans” value [11] was over 10 µM, the IC50 [12] was 260 to 1800 nM and the EC50 [14] was 76 nM.
For `CC[C@H](C)[C@@H]1NC(=O)[C@@H]2CSSC[C@@H]3NC(=O)[C@H](C(C)C)NC(=O)[C@H](CCCCN)NC(=O)[C@H](CC(=O)O)NC(=O)[C@H](CCCCN)NC(=O)[C@@H]4CSSC[C@H](NC(=O)[C@H](CO)NC(=O)[C@H](CCC(=O)O)NC(=O)CNC(=O)[C@H](CSSC[C@H](NC(=O)CNC(=O)[C@H]([C@@H](C)CC)NC(=O)[C@H](C(C)C)NC(=O)[C@H]([C@@H](C)O)NC(=O)[C@H]([C@@H](C)O)NC1=O)C(=O)N[C@@H](CO)C(=O)N4)NC(=O)[C@@H]1CCCN1C(=O)[C@H](C(C)C)NC(=O)CNC(=O)[C@H](CC(N)=O)NC(=O)[C@H]([C@@H](C)O)NC(=O)[C@H](Cc1ccc(O)cc1)NC3=O)C(=O)N[C@@H](C(C)C)C(=O)N[C@@H](Cc1ccccc1)C(=O)N[C@@H]([C@@H](C)CC)C(=O)N1CCC[C@H]1C(=O)N2` [gere 3], the “antimicrobial activity, MIC, Escherichia coli” value [1] was over 10 µM, the “antimicrobial activity, MIC, Pseudomonas aeruginosa” value [2] was over 10 µM and the “antimicrobial activity, MIC, Staphylococcus aureus” value [3] was over 10 µM. The “antimicrobial activity, MIC, Candida albicans” value [4] was over 10 µM.
